Data set [1] can be described thus: UV spectroscopy (absorption at 500 nm), critical aggregation concentration. The class given is physicochemical. Conditions: water solution; GCR-2 in the presence of two-fold excess of MG. As for the experimental part: Consequently, there is a chance that GCR-1 aggregates form not only by hydrogen bonds between hydroxylic groups but also by electrostatic interaction between negatively charged sulfonate groups on the lower rim and partially-positively charged meglumine groups on the upper rim. The change of optical density at 500 nm with increasing GCR-1 concentration has a nonlinear character (Figure 3b). The linear dependence breaks after 10 mM that correlates well with the CAC obtained by conductometry and tensiometry, and this violation of Lambert-Beer law is due to formation of GCR-1 aggregates in solution.
Dependence of GCR-2 at 500 nm on its concentration also loses linearity at higher 7.2 mM (Figure 3b). This is because the dissolved molecules of GCR-2 aggregate that confirms by conductometry and tensiometry. The obtained values of the correlation coefficients r^2 calculated for both calixarenes in a wide concentration range depict that GCR-2 has a greater ability to aggregate than GCR-1. […] Probably, the short methyl groups fail to form a nonpolar core capable of incorporating hydrophobic guests. Thus, the cooperative effect of hydrogen bonds and π-stacking between GCR-2 molecules contribute to formation of compact aggregates incapable to solubilization of hydrophobic molecules. […]

Data set [2] is described as follows: Hydrophobic dye (Sudan I) solubilization. The class given is physicochemical. Particulars: water solution; GCR-2 with two-fold excess of MG; absorption band at 500 nm region. The protocol: The method of solubilization of the hydrophobic dye Sudan I was used for determination of formed aggregates’ morphology. The appearance of an absorption band characteristic of a lipophilic substance in an aqueous solution of a specific component indicates the formation of a hydrophobic core of the component aggregates, like in surfactant micelles, which solubilizes the hydrophobic substrate.
Dependence of GCR-2 at 500 nm on its concentration also loses linearity at higher 7.2 mM (Figure 3b). This is because the dissolved molecules of GCR-2 aggregate that confirms by conductometry and tensiometry. The obtained values of the correlation coefficients r^2 calculated for both calixarenes in a wide concentration range depict that GCR-2 has a greater ability to aggregate than GCR-1. […] Probably, the short methyl groups fail to form a nonpolar core capable of incorporating hydrophobic guests. […]
Hydrophobic dye solubilization was carried out by adding an excess of Sudan I to solutions. […] They were filtered, and Sudan I absorbance was measured at 486 nm using a Specord 250 Plus spectrophotometer (Analytic Jena, Jena, Germany) using a 1 mm optical path length quartz cell. Dye absorbance was obtained by subtraction of the contribution of macrocycle to the summary spectrum. Each absorbance spectrum was obtained three times, and the absorbance intensities were within 2–3%.

The test system of the next data set is Chang liver cell line. Briefly: Cell viability evaluation (Cytell Cell Imaging). The class given is cell-based. Particulars: 50% inhibition of cell growth, human hepatocytes, read-out: IC50 on Chang Liver Cells Line. The protocol:
Cell viability of human hepatocytes cells (Chang liver cell line from the N. F. Gamaleya Research Center of Epidemiology and Microbiology) toward macrocycles was determined by means of multifunctional system Cytell Cell Imaging (GE Healthcare, Issaquah, WA, USA) using application Cell Viability BioApp and Automated Imaging BioApp. The cells were dispersed on a 96-well plate at a concentration of 200,000 cells/mL and cultivated in CO2-incubator at 37 °C. Next, the culture medium was sampled in 24 h, and 150 μL of the studied dispersions was added to each well. The experiments were repeated three times. Intact cells cultivated simultaneously with the studied ones served as a reference. The fraction of the grown-up cells was expressed in % vs. reference cells. Degree of cell growth inhibition under the influence of testing agent was calculated by equation:N (%) = (1 − Exp/Control) × 100(1) where Exp is the quantity of uninhibited cells in sample studied, Control is the quantity of uninhibited cells in control sample. Then the IC50 (concentration which caused 50% cell growth inhibition) was determined from curve of cell cultural growth versus macrocycle concentration. The experiments were repeated three times and results are presented as the mean ± standard deviation.

Each structure is given as a SMILES string. Where only a bound is given, the exact number is not on record here.

The IC50 is the concentration at which inhibition is half-maximal.

As to `CC1c2cc(c(O)c(CN(C)C[C@@H](O)[C@H](O)[C@@H](O)[C@@H](O)CO)c2O)C(C)c2cc(c(O)c(CN(C)C[C@@H](O)[C@H](O)[C@@H](O)[C@@H](O)CO)c2O)C(C)c2cc(c(O)c(CN(C)C[C@@H](O)[C@H](O)[C@@H](O)[C@@H](O)CO)c2O)C(C)c2cc1c(O)c(CN(C)C[C@@H](O)[C@H](O)[C@@H](O)[C@@H](O)CO)c2O` (stereo partly drawn) [GCR-2, N-methyl-D-glucaminemethyl methylcalix[4]resorcinarene], the “CAC, UV spectroscopy (loss of linearity of absorption at 500 nm)” value in data set [1] is reported as 7.2 mM. The “Solubilization of hydrophobic dye Sudan I” value in data set [2] is listed as “do not solubilize the hydrophobic Sudan I”. Also, the IC50 in the data set with Chang liver cell line was over 100 µM.
